Results on 14 molecules are retold here after PubChem BioAssay (NCI).

Assay in all cases: DTP human tumour cell line panel, 48 h
For experiment [1], the system named is ACHN renal.
Experiment [2] relates to K-562 leukemia.
The test system of experiment [3] is MOLT-4 leukemia.
In experiment [4] the test system is NCI-H226 lung.
Experiment [5] deals with OVCAR-3 ovarian.
Experiment [6] has as its system OVCAR-5 ovarian.
The subject of experiment [7] is SF-268 CNS.
Experiment [8] deals with SR leukemia.
Experiment [9] has as its system T-47D breast.
Experiment [10] has as its system U251 CNS.

“And” between values parts separate entries of the source, which are not always exact repeats. Equal entries are not always repeated.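 Exposure lasted 48 hours, with cells grown in 96-well plates and compounds tested at five concentrations. Here, GI50 denotes the concentration required for 50% inhibition of growth. At the TGI there is no net growth.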

As a reminder, the GI50 is the concentration that inhibits growth by half. By TGI is commonly meant the concentration giving total growth inhibition.

`CC(C)C[C@H](NC(=O)[C@H](CCc1ccccc1)NC(=O)CN1CCOCC1)C(=O)N[C@@H](Cc1ccccc1)C(=O)N[C@@H](CC(C)C)C(=O)[C@@]1(C)CO1`: the GI50 in experiment [1] was 0.0366 µM; in experiment [2], 0.0252 µM; in experiment [3] it was < 0.01 µM; in experiment [4] it was < 0.0122 µM; in experiment [5], < 0.01 µM; in experiment [6], 0.0255 µM. In addition, the GI50 in experiment [7] was < 0.01 µM; in [8], 0.0149 µM; in experiment [9] it was < 0.0128 µM; in experiment [10] it was < 0.0127 µM. Also, the TGI in [1] was 2.66 µM; in experiment [2], > 100 µM; in [3] it was > 100 µM; in experiment [4] it was < 0.0175 µM; in experiment [5], 0.0172 µM; in [6] it was 0.112 µM. Besides, the TGI in [7] was 0.252 µM; in experiment [8], > 100 µM; in [9] it was 0.028 µM; in [10] it was 0.0632 µM.
As to `C#CCN1C(=O)/C(=c2\sc3n(c2=O)C2C(NN=3)N(CC)C(=O)N2CC)c2ccccc21` (stereo not given), the GI50 is 0.65 µM in [1]; 0.342 µM in experiment [2]; 0.708 µM in experiment [3]; 1.25 µM in [4]; 0.316 µM in experiment [5]; 1.21 µM in [6]. For the same molecule, the GI50 in [7] was 5.5 µM; in experiment [8], 0.344 µM; in experiment [9], 0.639 µM; in experiment [10], 0.648 µM. Further, the TGI was > 58.2 µM in [1]; > 100 µM in experiment [2]; > 100 µM in experiment [3]; > 83.2 µM in experiment [4]; 1.69 µM in [5]; > 100 µM in experiment [6]. In addition, the TGI in experiment [7] is > 100 µM; in experiment [8], > 100 µM; in experiment [9] it was > 100 µM; in experiment [10] it was > 47 µM.
Take `Nc1ncnc2c1c(C(F)(F)F)cn2[C@@H]1O[C@H](CO)[C@@H](O)[C@H]1O`: the GI50 in experiment [1] was 0.183 µM; in experiment [2] it was 0.304 µM; in experiment [3], 0.324 µM; in experiment [4] it was 1.12 µM; in experiment [5] it was 0.398 µM; in experiment [6], 1.02 µM. Besides, the GI50 in [7] was 1.19 µM; in experiment [8], 0.341 µM; in [9], 0.104 µM; in experiment [10] it was 1.33 µM. Besides, the TGI in [1] was > 100 µM; in [2], 1.41 µM; in [3] it was 1.48 µM; in [4], 79.7 µM; in experiment [5], > 100 µM; in experiment [6] it was > 72.2 µM. Also, the results for the TGI in [7], in experiment [9] and in experiment [10] were > 26.3 µM, 70.8 µM and > 89.6 µM, respectively.
As for `NC(=O)CCC(NC(=O)OCc1ccccc1)C(=O)OCC(=O)c1ccccc1` (stereo not given), the GI50 in [1], in [2], in experiment [3], in [4], in [5] and in experiment [6] was > 100 µM each time. In addition, the GI50 in experiment [7], in [8], in experiment [9] and in experiment [10] was > 100 µM throughout. The TGI in [1], in experiment [2], in experiment [3], in [4], in experiment [5] and in experiment [6] was > 100 µM in each case. Moreover, the TGI in experiment [7], in [8], in [9] and in experiment [10] was > 100 µM each time.
With `CCCS(=O)(=O)Nc1ccc(F)c(C(=O)c2c[nH]c3ncc(-c4ccc(Cl)cc4)cc23)c1F`, the GI50 is 3.92 µM and 4.77 µM in experiment [1]; 4.32 µM and > 8.72 µM in experiment [2]; 3.72 µM and > 8.33 µM in experiment [3]; 9.23 µM and > 5.91 µM in experiment [4]; 7.65 µM and > 8.66 µM in experiment [5]; 10.2 µM and > 9.13 µM in experiment [6]. The GI50 was 6.09 µM and 6.67 µM in experiment [7]; 2.1 µM and 2.92 µM in experiment [8]; 5.34 µM and 5.13 µM in experiment [9]; 3.37 µM and 4.02 µM in experiment [10]. Moreover, the TGI in experiment [1] was 15.9 µM and > 10 µM; in experiment [2], 19.6 µM and > 10 µM; in [3], 16.1 µM and > 10 µM; in [4] it was 36.7 µM and > 10 µM; in experiment [5] it was 25.5 µM and > 10 µM; in experiment [6], 30 µM and > 10 µM. The TGI is 23.6 µM and > 10 µM in experiment [7]; 13.9 µM and > 10 µM in experiment [8]; 24.8 µM and > 10 µM in experiment [9]; 15.9 µM and > 10 µM in [10].
On to `CN1/C(=C\C(I)C(I)C2=[N+](C)c3ccccc3C2(C)C)C(C)(C)c2ccccc21` (stereo not given), for which the GI50 in [1] was 0.665 µM; in [2] it was 0.202 µM; in [3], 0.243 µM; in experiment [4], 0.2 µM; in experiment [5], 0.304 µM; in experiment [6], 1.25 µM. Moreover, the GI50 was 0.479 µM in experiment [7], 0.151 µM in [8], 0.0852 µM in experiment [9] and 0.262 µM in experiment [10]. The TGI in [1] is 26.4 µM; in experiment [2], 14.6 µM; in experiment [3], 2.07 µM; in [4], 24.2 µM; in [5] it was 13.8 µM; in [6] it was > 70.5 µM. The TGI in experiment [7] was 19.1 µM; in [8] it was 13.8 µM; in experiment [9], 9.39 µM; in experiment [10], 15.7 µM.
For `COc1ccc(-c2ccc3c(NC(=O)C4CC4)n[nH]c3n2)cc1`, the GI50 in experiment [1], in experiment [2], in experiment [3], in [4], in [5] and in experiment [6] was > 25 µM throughout. For the same molecule, the GI50 was 11.5 µM in [7], > 25 µM in experiment [8], > 25 µM in [9] and 18 µM in experiment [10]. Further, the TGI in [1], in [2], in experiment [3], in experiment [4], in experiment [5] and in [6] was > 25 µM each time. Also, the TGI in experiment [7], in experiment [8], in experiment [9] and in experiment [10] was > 25 µM each time.
For `CC(=O)OCC1OC(OC2C(COC(C)=O)OC(OCCC[S-])C(OC(C)=O)C2OC(C)=O)C(OC(C)=O)C(OC(C)=O)C1OC(C)=O.[Au+].c1ccc(CN2[CH-]N(Cc3ccccc3)C(c3ccccc3)=C2c2ccccc2)cc1` (stereo not given), the GI50 is 2.9 µM in experiment [1]; 3.27 µM in experiment [2]; 3.42 µM in experiment [3]; 4.68 µM in experiment [4]; 2.62 µM in [5]; 5.67 µM in experiment [6]. In addition, the GI50 in [7] was 5.2 µM; in experiment [8], 2.61 µM; in experiment [9] it was 3.28 µM; in [10], 2.77 µM. Also, the TGI in experiment [1] came to 10.6 µM; in experiment [2], 14.5 µM; in experiment [3] it was 26 µM; in [4] it was 33 µM; in [5], 8.48 µM; in experiment [6] it was 27 µM. The TGI in [7] came out at 24.9 µM; in experiment [8] it was 20.6 µM; in [9], 18.5 µM; in [10], 7.47 µM.
Regarding `CN(C)c1ccc(/C=C2\C[C@H]3[C@@H]4CC=C5C[C@@H](N6CCCC6)CC[C@]5(C)[C@H]4CC[C@]3(C)[C@H]2O)cc1`, the GI50 in [1] is 1.82 µM; in experiment [2], 2.36 µM; in experiment [3] it was 4.98 µM; in [4], 14 µM; in [5], 2.06 µM; in experiment [6], 14.1 µM. Moreover, the GI50 in experiment [7] is 2.93 µM; in experiment [8] it was 3.04 µM; in [9], 2.33 µM; in experiment [10], 1.78 µM. The TGI in [1] is 1.71 µM and 3.34 µM; in experiment [5] it was 2.7 µM and 4.86 µM; in [6] it was 13 µM and 57.2 µM; in experiment [7] it was 2.4 µM and 9.84 µM; in experiment [9], 2.33 µM and 6.03 µM; in experiment [10], 1.92 µM and 3.31 µM.
With `Cc1ccc2c(c1)C(=O)c1c-2n(CCCN)c(=O)c2cc([N+](=O)[O-])ccc12`, the GI50 in experiment [1] was 0.106 µM; in experiment [2], 0.11 µM; in experiment [3] it was 0.0244 µM; in experiment [4], 0.54 µM; in experiment [5] it was 0.521 µM; in [6] it was 0.873 µM. The GI50 in [7] was 0.0373 µM; in [8] it was 0.0394 µM; in experiment [9] it was 0.157 µM; in experiment [10], 0.124 µM. The TGI came to 0.609 µM in [1]; 0.721 µM in [2]; 0.129 µM in experiment [3]; 1.33 µM in experiment [4]; 1.32 µM in experiment [5]; 1.58 µM in experiment [6]. Also, the TGI in experiment [7] was 0.555 µM; in experiment [8] it was 0.201 µM; in [9], 0.461 µM; in experiment [10], 0.832 µM.
As to `Nc1ccc(-c2nc3ccc4[nH]ncc4c3c3c2CCCC3)cc1F`, the GI50 was 0.316 µM in [1]; 1.98 µM in experiment [2]; 1.27 µM in experiment [3]; 0.686 µM in experiment [4]; 1.89 µM in experiment [5]; 2.42 µM in experiment [6]. Further, the GI50 in [7] is 1.76 µM; in experiment [8], 1.12 µM; in experiment [9], 1.2 µM; in experiment [10], 1.29 µM. The TGI is 15.5 µM in [1]; 22.8 µM in experiment [2]; 5.82 µM in [3]; 5.5 µM in experiment [4]; 18.5 µM in experiment [5]; 23 µM in experiment [6]. Also, the TGI in experiment [7] turned out to be 19.2 µM; in experiment [8] it was 9.1 µM; in experiment [9], 7.77 µM; in experiment [10], 8.95 µM.
`CCN1CCN(c2nc(NNC(=O)Cc3ccccc3)nc(N3CCN(C(c4ccccc4)c4ccccc4)CC3)n2)CC1`: the GI50 in [1] is 1.65 µM; in experiment [2] it was 1.8 µM; in experiment [3], 2.63 µM; in experiment [4], 16.9 µM; in experiment [5] it was 2 µM; in [6], 2.24 µM. In addition, the GI50 was 2.06 µM in experiment [7], 1.92 µM in [8], 1.85 µM in experiment [9] and 1.78 µM in [10]. For the same molecule, the TGI was found to be 3.07 µM in [1]; 4.38 µM in experiment [2]; 8.39 µM in experiment [3]; 42.7 µM in [4]; 4.08 µM in experiment [5]; 5.63 µM in experiment [6]. Also, the TGI was 5.06 µM in [7], 5.31 µM in experiment [8], 4.8 µM in experiment [9] and 3.6 µM in experiment [10].
For `COc1ccc(OC)c(-c2nc3sccn3c2/C=C2/C(=O)Nc3ccc(Cl)cc32)c1`, the GI50 was 30.8 µM in [1]; 29.9 µM in experiment [2]; 22.1 µM in [3]; 20.8 µM in experiment [4]; 21.7 µM in [5]; 30 µM in [6]. For the same molecule, the GI50 in experiment [7] is 30.6 µM; in experiment [8], 18.5 µM; in experiment [9], 26.6 µM; in experiment [10] it was 24.9 µM. The TGI in [1] is > 100 µM; in [2], > 100 µM; in experiment [3] it was 69.4 µM; in experiment [4], 67.3 µM; in [5] it was 55.2 µM; in [6], > 100 µM. The TGI in experiment [7] is > 100 µM; in experiment [8], 53.4 µM; in [9], 70.1 µM; in experiment [10], 74.1 µM.
For the molecule `S=c1nc(-c2nc(=S)[nH]c3c2CCCCCCCCCC3)c2c([nH]1)CCCCCCCCCC2`, the TGI in experiment [1], in experiment [2], in [3], in [4], in [5] and in experiment [6] was > 100 µM in each case. Besides, the TGI in [7], in [8], in [9] and in experiment [10] was > 100 µM in each case.
